# Results published in patent publication US20240140957A1, “BRIDGED COMPOUNDS AS KRAS G12D INHIBITOR AND DEGRADER AND THE USE THEREOF” (BeiGene Switzerland GmbH, priority 2021, published 2024).
# Target: GDP-loaded KRAS G12D (Homo sapiens, UniProt P01116, G12D)
# Experiment: KRAS G12D Probe Displacement Assay
# Assay type: binding
# Settings: KRAS G12D 0.5 nM, biotinylated probe 2 4 nM; Table 6 letters; read-out: KRAS G12D Probe Displacement Assay IC50 (class)
# GDP-loaded KRAS G12D, sequence (P01116 1-188 isoform P01116-2 G12D): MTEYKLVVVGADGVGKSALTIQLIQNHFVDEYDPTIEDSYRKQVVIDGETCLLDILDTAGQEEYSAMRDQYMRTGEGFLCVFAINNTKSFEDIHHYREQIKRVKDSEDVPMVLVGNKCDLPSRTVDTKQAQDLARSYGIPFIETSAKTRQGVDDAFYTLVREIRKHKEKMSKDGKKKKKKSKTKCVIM
row,Compound,IC50
1,"Cc1cc(O)cc(-c2c(Cl)cc3c(N4CC5CCC(C4)N5)nc(OC[C@@]45CCCN4C[C@H](F)C5)nc3c2F)c1C(F)(F)F [Example E114, 3-(4-(3,8-diazabicyclo[3.2.1]octan-3-yl)-6-chloro-8-fluoro-2-(((2R,7aS)-2-fluorotetrahydro-1H-pyrrolizin-7a(5H)-yl)methoxy)quinazolin-7-yl)-5-methyl-4-(trifluoromethyl)phenol]",< 50 nM
2,"C[C@@H](CN1CCC(F)CC1)Oc1nc(N2CC3CCC(C2)N3)c2cc(Cl)c(-c3ccc(F)c4sc(N)c(C#N)c34)c(F)c2n1 [Example E116, 4-(4-(3,8-diazabicyclo[3.2.1]octan-3-yl)-6-chloro-8-fluoro-2-(((S)-1-(4-fluoropiperidin-1-yl)propan-2-yl)oxy)quinazolin-7-yl)-2-amino-7-fluorobenzo[b]thiophene-3-carbonitrile]",< 50 nM
3,"Cc1cc(N)nc(-c2cc3nc(OC[C@@]45CCCN4C[C@H](F)C5)nc(N4CC5CCC(C4)N5)c3cc2Cl)c1C(F)(F)F [Example E117, 6-(4-(3,8-diazabicyclo[3.2.1]octan-3-yl)-6-chloro-2-(((2R,7aS)-2-fluorotetrahydro-1H-pyrrolizin-7a(5H)-yl)methoxy)quinazolin-7-yl)-4-methyl-5-(trifluoromethyl)pyridin-2-amine]",< 50 nM
4,"Cc1cc(N)c(C#N)c(-c2c(Cl)cc3c(N4CC5CCC(C4)N5)nc(OC[C@@]45CCCN4C[C@H](F)C5)nc3c2F)c1I [Example E118, 2-(4-(3,8-diazabicyclo[3.2.1]octan-3-yl)-6-chloro-8-fluoro-2-(((2R,7aS)-2-fluorotetrahydro-1H-pyrrolizin-7a(5H)-yl)methoxy)quinazolin-7-yl)-6-amino-3-iodo-4-methylbenzonitrile]",< 50 nM
5,"CN1C[C@H](F)C[C@]1(C)COc1nc(N2C3CNCC2COC3)c2cc(C(F)(F)F)c(-c3ccc(F)c4sc(N)nc34)c(F)c2n1 [Example E122, 4-(4-(3-oxa-7,9-diazabicyclo[3.3.1]nonan-9-yl)-8-fluoro-2-(((2R,4R)-4-fluoro-1,2-dimethylpyrrolidin-2-yl)methoxy)-6-(trifluoromethyl)quinazolin-7-yl)-7-fluorobenzo[d]thiazol-2-amine]",< 50 nM
6,"N#CCCNC1C[C@H]2CC[C@@H]1N2c1nc(OC[C@@]23CCCN2C[C@H](F)C3)nc2c(F)c(-c3ccc(F)c4sc(N)nc34)c(C(F)(F)F)cc12 (stereo partly drawn) [Example E124, 3-(((1S,4R)-7-(7-(2-amino-7-fluorobenzo[d]thiazol-4-yl)-8-fluoro-2-(((2R,7aS)-2-fluorotetrahydro-1H-pyrrolizin-7a(5H)-yl)methoxy)-6-(trifluoromethyl)quinazolin-4-yl)-7-azabicyclo[2.2.1]heptan-2-yl)amino)propanenitrile]",< 50 nM
7,"C=Cc1cc(N)nc(-c2c(Cl)cc3c(N4CC5CCC(C4)N5)nc(OC[C@@]45CCCN4C[C@H](F)C5)nc3c2F)c1C(F)(F)F [Example E125, 6-(4-(3,8-diazabicyclo[3.2.1]octan-3-yl)-6-chloro-8-fluoro-2-(((2R,7aS)-2-fluorotetrahydro-1H-pyrrolizin-7a(5H)-yl)methoxy)quinazolin-7-yl)-5-(trifluoromethyl)-4-vinylpyridin-2-amine]",< 50 nM
8,"Oc1cc(F)c(C(F)(F)F)c(-c2c(Cl)cc3c(N4CC5CCC(C4)N5)nc(OC[C@@]45CCCN4C[C@H](F)C5)nc3c2F)c1 [Example E126, 3-(4-(3,8-diazabicyclo[3.2.1]octan-3-yl)-6-chloro-8-fluoro-2-(((2R,7aS)-2-fluorotetrahydro-1H-pyrrolizin-7a(5H)-yl)methoxy)quinazolin-7-yl)-5-fluoro-4-(trifluoromethyl)phenol]",< 50 nM
9,"Nc1nc2c(-c3cc4nc(OC[C@@]56CCCN5C[C@H](F)C6)nc(N5CC6CCC(C5)N6)c4cc3C(F)(F)F)ccc(F)c2s1 [Example E128, 4-(4-(3,8-diazabicyclo[3.2.1]octan-3-yl)-2-(((2R,7aS)-2-fluorotetra hydro-1H-pyrrolizin-7a(5H)-yl)methoxy)-6-(trifluoromethyl)quinazolin-7-yl)-7-fluorobenzo[d] thiazol-2-amine]",< 50 nM

# Next, values leading:
row,IC50,Compound
1,< 50 nM,"C#Cc1cc(N)nc(-c2c(Cl)cc3c(N4C5CCC4CNC5)nc(OC[C@@]45CCCN4C[C@H](F)C5)nc3c2F)c1C(F)(F)F [Example E113, 6-(4-(3,8-diazabicyclo[3.2.1]octan-8-yl)-6-chloro-8-fluoro-2-(((2R,7aS)-2-fluorotetrahydro-1H-pyrrolizin-7a(5H)-yl)methoxy)quinazolin-7-yl)-4-ethynyl-5-(trifluoromethyl)pyridin-2-amine]"
2,< 50 nM,"C[C@@H](CN1C2CCC1CC(C#N)C2)Oc1nc(N2CC3CCC(C2)N3)c2cc(Cl)c(-c3ccc(F)c4sc(N)c(C#N)c34)c(F)c2n1 (stereo partly drawn) [Example E115, 8-((2S)-2-((7-(2-amino-3-cyano-7-fluorobenzo[b]thiophen-4-yl)-4-(3,8-diazabicyclo[3.2.1]octan-3-yl)-6-chloro-8-fluoroquinazolin-2-yl)oxy)propyl)-8-azabicyclo [3.2.1]octane-3-carbonitrile]"
3,< 50 nM,"Cc1cc(N)nc(-c2c(C#N)cc3c(N4CC5CCC(C4)N5)nc(OC[C@@]45CCCN4C[C@H](F)C5)nc3c2F)c1C(F)(F)F [Example E119, 7-(6-amino-4-methyl-3-(trifluoromethyl)pyridin-2-yl)-4-(3,8-diazabicyclo [3.2.1]octan-3-yl)-8-fluoro-2-(((2R,7aS)-2-fluorotetrahydro-1H-pyrrolizin-7a(5H)-yl)methoxy) quinazoline-6-carbonitrile]"
4,< 50 nM,"Cc1cc2[nH]ncc2c(-c2c(Cl)cc3c(N4CC5CCC(C4)N5)nc(OC[C@@]45CCCN4C[C@H](F)C5)nc3c2F)c1Cl [Example E120, 4-(3,8-diazabicyclo[3.2.1]octan-3-yl)-6-chloro-7-(5-chloro-6-methyl-1H-indazol-4-yl)-8-fluoro-2-(((2R,7aS)-2-fluorotetrahydro-1H-pyrrolizin-7a(5H)-yl)methoxy)quinazoline]"
5,< 50 nM,"CN1CCCC1(CC#N)COc1nc(N2CC3CCC(C2)N3)c2cc(C(F)(F)F)c(-c3ccc(F)c4sc(N)nc34)c(F)c2n1 (stereo not shown) [Example E121, 2-(2-(((7-(2-amino-7-fluorobenzo[d]thiazol-4-yl)-4-(3,8-diazabicyclo[3.2.1]octan-3-yl)-8-fluoro-6-(trifluoromethyl)quinazolin-2-yl)oxy)methyl)-1-methylpyrrolidin-2-yl)acetonitrile]"
6,< 50 nM,"Oc1cc(Cl)c(C2CC2)c(-c2c(Cl)cc3c(N4CC5CCC(C4)N5)nc(OC[C@@]45CCCN4C[C@H](F)C5)nc3c2F)c1 [Example E123, 3-(4-(3,8-diazabicyclo[3.2.1]octan-3-yl)-6-chloro-8-fluoro-2-(((2R,7aS)-2-fluorotetrahydro-1H-pyrrolizin-7a(5H)-yl)methoxy)quinazolin-7-yl)-5-chloro-4-cyclopropylphenol]"
7,< 50 nM,"Nc1nc2c(-c3c(C(F)(F)F)cc4c(N5C6CNCC5C6)nc(OC[C@@]56CCCN5C[C@H](F)C6)nc4c3F)ccc(F)c2s1 [Example E127, 4-(4-(3,6-diazabicyclo[3.1.1]heptan-6-yl)-8-fluoro-2-(((2R,7aS)-2-fluorotetrahydro-1H-pyrrolizin-7a(5H)-yl)methoxy)-6-(trifluoromethyl)quinazolin-7-yl)-7-fluoro benzo[d]thiazol-2-amine]"
